Patent publication US9850257B2, “Tricyclic heterocycles as BET protein inhibitors” (Incyte Corporation, priority 2013, dated 2017)
Counter-ions that a name gives are not always drawn.

Tests used:
BRD4-BD1 = BRD4-BD1 (Homo sapiens (Human), UniProt O60885); assay: BRD4 AlphaScreen assay (BD1); assay type: binding; conditions: biotin-labeled tetra-acetylated histone H4 peptide, 3.8 nM BRD4-BD1, read-out: BRD4 BD-1 enzyme IC50
Procedure: (§1) BRD4-BD1 and BRD4-BD2 assays were conducted in white 384-well polystyrene plate in a final volume of 20 μL for BD1 and 40 μL for BD2. Inhibitors were first serially diluted in DMSO and added to the plate wells before the addition of other reaction components. The final concentration of DMSO in the assay was 1.25% (BD1) and 0.83% (BD2). The assays were carried out at room temperature for 75 min. in the assay buffer (50 mM HEPES, pH 7.4, 100 mM NaCl, 0.05% CHAPS, 0.01% BSA), containing 50 nM Biotin-labeled tetra-acetylated histone H4 peptide (H4Ac4), 3.8 nM (BRD4-BD1, BPS Bioscience #31040) or 20 nM (BRD4-BD2, BPS Bioscience #31041). The reaction followed by the addition of 20 μL of assay buffer supplemented with Streptavidin donor beads (PerkinElmer 6760002) and GSH Acceptor beads (PerkinElmer-AL109C) at 4 jag/mL under reduced light. After plate sealing, the plate was incubated in the dark at room temperature for 75 min. before reading on a PHERAstar FS plate reader (BMG Labtech). IC50 determination was performed by fitting the curve of percent control activity versus the log of the inhibitor concentration using the GraphPad Prism 5.0 software.

BRD4-BD2 = BRD4-BD2 (Homo sapiens (Human), UniProt O60885); assay: BRD4 AlphaScreen assay (BD2); assay type: binding; conditions: biotin-labeled tetra-acetylated histone H4 peptide, 20 nM BRD4-BD2, read-out: BRD4 BD-2 enzyme IC50
Procedure: as §1

[1] = tested on: KMS.12.BM cell line (human myeloma); assay: KMS.12.BM cell viability assay; assay type: cell-based; conditions: 72 h, KMS.12.BM cells, 3 days, Cell Titer-GLO ATP quantitation, read-out: KMS cellular IC50
Procedure: KMS.12.BM Cell Viability Assay
KMS.12.BM cell line (human myeloma) was purchased from JCRB (Osaka, Japan) and maintained in RPMI with 10% FBS culture medium. To measure the cytotoxic activity of the compounds through ATP quantitation, the KMS. 12.BM cells are plated in the RPMI culture medium at 5000 cells/well/per 100 μL into a 96-well polystyrene clear black tissue culture plate (Greiner-bio-one through VWR, NJ), in the presence or absence of a concentration range of test compounds. After 3 days, […] Cell Titer-GLO Luminescent (Promega, Madison, Wis.) cell culture agent is added to each well for 10 minutes at room temperature to stabilize the luminescent signal. This determines the number of viable cells in culture based on quantitation of the ATP present, which signals the presence of metabolically active cells. Luminescence is measured with the Top Count 384 (Packard Bioscience through Perkin Elmer, Boston, Mass.). Compound inhibition is determined relative to cells cultured with no drug and the IC50 reported as the compound concentration required for 50% cell death.

SMILES	IC50 (BRD4-BD1) [nM]	IC50 (BRD4-BD2) [nM]	IC50 [1] [nM]
Cc1noc(C)c1-c1cc(F)c2nnn3c2c1OCC3c1cccnc1 (centres unmarked) [Example 13, 7-(3,5-Dimethylisoxazol-4-yl)-9-fluoro-4-pyridin-3-yl-4,5-dihydro[1,2,3]triazolo[1,5,4-de][1,4]benzoxazine trifluoroacetate]	> 1000	200 to 1000	
Cc1noc(C)c1-c1cc(Br)c2cnn3c2c1OCC3c1ccccc1 (centres unmarked) [Example 9, 7-Bromo-9-(3,5-dimethylisoxazol-4-yl)-3-phenyl-2,3-dihydro[1,4]oxazino[2,3,4-hi]indazole]	200 to 1000	≤ 200	1000 to 10000
Cc1noc(C)c1-c1ccc2c(=O)[nH]n3c2c1OCC3c1ccccn1 (centres unmarked) [Example 5, 9-(3,5-Dimethylisoxazol-4-yl)-3-pyridin-2-yl-2,3-dihydro[1,4]oxazino[2,3,4-hi]indazol-6(5H)-one]	200 to 1000	≤ 200	≤ 1000
COc1nn2c3c(c(-c4c(C)noc4C)ccc13)OCC2c1ccccn1 (centres unmarked) [Example 7, 9-(3,5-Dimethylisoxazol-4-yl)-6-methoxy-3-pyridin-2-yl-2,3-dihydro[1,4]oxazino[2,3,4-hi]indazole]	≤ 200	≤ 200	≤ 1000
Cc1noc(C)c1-c1ccc2c(=O)n(C)n3c2c1OCC3c1ccccn1 (centres unmarked) [Example 6, 9-(3,5-Dimethylisoxazol-4-yl)-5-methyl-3-pyridin-2-yl-2,3-dihydro[1,4]oxazino[2,3,4-hi]indazol-6(5H)-one]	≤ 200	≤ 200	≤ 1000
Cc1noc(C)c1-c1ccc2c(=O)[nH]n3c2c1OCC3c1cccnc1 (centres unmarked) [Example 10, 9-(3,5-Dimethylisoxazol-4-yl)-3-pyridin-3-yl-2,3-dihydro[1,4]oxazino[2,3,4-hi]indazol-6(5H)-one]	200 to 1000	≤ 200	1000 to 10000
Cc1noc(C)c1-c1ccc2cnn3c2c1OCC3c1ccccn1 (centres unmarked) [Example 8, 9-(3,5-Dimethylisoxazol-4-yl)-3-pyridin-2-yl-2,3-dihydro[1,4]oxazino[2,3,4-hi]indazole trifluoroacetate]	≤ 200	≤ 200	≤ 1000
Cc1noc(C)c1-c1ccc2c(=O)n(C)n3c2c1OCC3c1ccccc1 (centres unmarked) [Example 2, 9-(3,5-Dimethylisoxazol-4-yl)-5-methyl-3-phenyl-2,3-dihydro[1,4]oxazino[2,3,4-hi]indazol-6(5H)-one]	≤ 200	≤ 200	≤ 1000

Now from value to compound:

IC50 (BRD4-BD1) [nM]	IC50 (BRD4-BD2) [nM]	IC50 [1] [nM]	SMILES
≤ 200	≤ 200	≤ 1000	Cc1noc(C)c1-c1ccc2cnn3c2c1OCC3c1ccccc1 (centres unmarked) [Example 4, 9-(3,5-Dimethylisoxazol-4-yl)-3-phenyl-2,3-dihydro[1,4]oxazino[2,3,4-hi]indazole]
≤ 200	≤ 200	≤ 1000	COc1nn2c3c(c(-c4c(C)noc4C)ccc13)OCC2c1cccnc1 (centres unmarked) [Example 12, 9-(3,5-Dimethylisoxazol-4-yl)-6-methoxy-3-pyridin-3-yl-2,3-dihydro[1,4]oxazino[2,3,4-hi]indazole]
≤ 200	≤ 200	≤ 1000	COc1nn2c3c(c(-c4c(C)noc4C)ccc13)OCC2c1ccccc1 (centres unmarked) [Example 3, 9-(3,5-Dimethylisoxazol-4-yl)-6-methoxy-3-phenyl-2,3-dihydro[1,4]oxazino[2,3,4-hi]indazole]
≤ 200	≤ 200	≤ 1000	Cc1noc(C)c1-c1ccc2c(=O)[nH]n3c2c1OCC3c1ccccc1 (centres unmarked) [Example 1, 9-(3,5-Dimethylisoxazol-4-yl)-3-phenyl-2,3-dihydro[1,4]oxazino[2,3,4-hi]indazol-6(5H)-one]
≤ 200	≤ 200	≤ 1000	Cc1noc(C)c1-c1ccc2c(=O)n(C)n3c2c1OCC3c1cccnc1 (centres unmarked) [Example 11, 9-(3,5-Dimethylisoxazol-4-yl)-5-methyl-3-pyridin-3-yl-2,3-dihydro[1,4]oxazino[2,3,4-hi]indazol-6(5H)-one]
